Experiments:
[1] = Metabolite profiling in rats (bile, plasma, liver); format: in vivo, male Sprague–Dawley rats; settings: saxagliptin 100 mg/kg intraperitoneal injection, samples up to 4 h
Text: Male Sprague–Dawley (SD) rats (7 weeks old, 200–225 g) were purchased from SamTako Co. (Osan, Republic of Korea). The animals were acclimatized for one week in an animal facility at the College of Pharmacy, Kyungpook National University (Daegu, Republic of Korea). The Kyungpook National University Animal Care and Use Committee (KNU 2021-0120, 12 July 2021) approved the study protocol, conducted under the National Institutes of Health guidance for the care and use of laboratory animals. […] The bile duct was cannulated with polyethylene tubes (PE-10, Jungdo, Seoul, Republic of Korea) under isoflurane anesthesia (isoflurane vaporizer to 2% with oxygen flow at 0.8 L/min). […] Bile samples were then collected for 4 h. […] The liver tissues were immediately excised, gently washed with ice-cold saline-soaked wet tissue to remove the contaminated blood, and homogenized with 4 volumes of saline. Aliquots of plasma, bile, and 20% liver homogenates were stored at −80 °C until the analysis.
The liver homogenates were vortexed with the same volume of methanol/acetonitrile mixtures (1/1, v/v) and centrifuged (13,500× g, 10 min). The remaining pellets were reextracted twice, and pooled supernatants were dried and reconstituted with 50% methanol in water (100 μL) for LC-MS/MS analysis. Protein concentrations in the pellets were determined using a Bradford protein assay kit (Bio-Rad Laboratories, Hercules, CA, USA) with bovine serum albumin as a standard. The rat bile and plasma (200 μL) samples were vortexed with the same methanol/acetonitrile mixture volume (1/1, v/v). The mixture was centrifuged after vortexing, and the supernatants were dried to complete dryness and reconstituted with 50% methanol in water (100 μL) for LC-MS/MS analysis. The contents of biliverdin in the bile samples were analyzed by measuring ultraviolet absorbance at 380 nm using a microplate reader (Infinite M200 PRO, TECAN, Mannedorf, Switzerland) after 10-fold dilution with 50% methanol.

[2] = Metabolite profiling in rat liver microsomes; format: in vitro ADME; settings: for Metabolite detection in incubates of saxagliptin: saxagliptin 100 μM, RLM 1 mg/mL, NADPH-generating system and/or L-cysteine, 2 h
Method: L-cysteine (100 mM), glutathione (2.5 mM), or UDPGA (5 mM) was added after pre-incubation with or without 100 mM L-cysteine at 37 °C for 5 min to an NADPH-generating system (1.3 mM of NADP^+, 3.3 mM of G6P, 1 unit/mL of G6PDH, and 3.3 mM of MgCl2) to initiate the microsomal reaction. The reaction was stopped by adding cold acetonitrile after microsomal incubation for 2 h.
In the presence of L-cysteine (100 mM) or glutathione (100 mM) in phosphate buffer (100 mM, pH of 7.4), 5-Hydroxysaxagliptin (100 μM) was incubated at 37 °C for 2 h. The supernatants were analyzed using high-resolution Orbitrap MS after incubation reaction termination and centrifugation.

[3] = cited from earlier work

Row | SMILES | Metabolite detection in rat bile, plasma and liver tissues [1] | Stability on incubation with L-cysteine [3] | other results
1 | N#CC1CC2CC2N1C(=O)C(N)C12CC3CC(CC(OC4OC(C(=O)O)C(O)C(O)C4O)(C3)C1)C2 (stereo not shown) [Metabolite M8, Saxagliptin-O-glucuronide] | observed in rat bile, plasma, and liver tissues |  | 
2 | N#CC1CC2CC2N1C(=O)C(N)C12CC3CC(O)(CC(O)(C3)C1)C2 (stereo not shown) [Metabolite M2, 5-Hydroxysaxagliptin] |  |  | Metabolite detection in incubates of saxagliptin [2]: observed in rat liver microsomal incubation samples regardless of the addition of L-cysteine
3 | NC(C(=O)N1C(C2=NC(C(=O)O)CS2)CC2CC21)C12CC3CC(O)(CC(O)(C3)C1)C2 (stereo not shown) [Metabolite M4, 5-Hydroxysaxagliptin–cysteine conjugate] |  |  | Metabolite detection in incubate of 5-hydroxysaxagliptin with L-cysteine ([2]; microsomal incubation with 5-hydroxysaxagliptin in the presence of L-cysteine): detected
4 | NC(C(=O)N1C(C2=NC(C(=O)O)CS2)CC2CC21)C12CC3CC(CC(O)(C3)C1)C2 (stereo not shown) [Metabolite M3, Saxagliptin–cysteine conjugate] | observed in rats |  | Metabolite detection in incubates of saxagliptin [2]: formed in an enzyme-nonspecific manner
5 | N[C@@H](CC(=O)N1CCn2c(nnc2C(F)(F)F)C1)Cc1cc(F)c(F)cc1F [sitagliptin] |  | stable | 
6 | Cc1cc2ncc(C(=O)NCC(C)(C)NCC(=O)N3CCC[C@H]3C#N)cn2n1 [anagliptin] |  | unstable | 
7 | CC#CCn1c(N2CCC[C@@H](N)C2)nc2c1c(=O)n(Cc1nc(C)c3ccccc3n1)c(=O)n2C [linagliptin] |  | stable | 
8 | N=C1NC(C23CC4CC(CC(O)(C4)C2)C3)N2C1CC1CC12 (stereo not shown) [Metabolite M1, Saxagliptin cyclic amidine] |  |  | Metabolite detection in incubates of saxagliptin [2]: found in the incubation sample of saxagliptin with buffer solution (Figure 5a) and RLM (Figure 5c) in the presence of +L-cysteine
9 | NC(C(=O)N1C(C2=NC(C(=O)NCC(=O)O)CS2)CC2CC21)C12CC3CC(CC(O)(C3)C1)C2 (stereo not shown) [Metabolite M5, Saxagliptin–cysteinylglycine conjugate] | found in rat bile, plasma, and liver tissues |  | 
10 | N#CC1CC2CC2N1C(=O)C(N)C12CC3CC(CC(OS(=O)(=O)O)(C3)C1)C2 (stereo not shown) [Metabolite M7, Saxagliptin-O-sulfate] | only found in rat bile |  | 
11 | NC(C(=O)N1C(C2=NC(C(=O)NCC(=O)O)CS2)CC2CC21)C12CC3CC(O)(CC(O)(C3)C1)C2 (stereo not shown) [Metabolite M6, 5-Hydroxysaxagliptin–cysteinylglycine conjugate] | observed in rats |  | 
12 | Cn1c(=O)cc(N2CCC[C@@H](N)C2)n(Cc2ccccc2C#N)c1=O [alogliptin] |  | stable | 

— PMC10819019 (Pharmaceutics, 2024)
